Tested on: Mfn2 null MEFs
Test: Mitochondrial elongation (aspect ratio) fusogenicity assay
Format: cell-based, mouse
Conditions: for Aspect ratio (MEAN ± SEM): Mfn2 null MEFs, overnight, treatment with 1 μM compound (footnote); for Fusogenicity Rank: rank order of aspect ratio among 44 soluble library compounds

| SMILES | Aspect ratio (MEAN ± SEM) | Fusogenicity Rank |
| --- | --- | --- |
| CCOC(=O)c1sc(NC(=O)C(CC)Sc2nnc3c(n2)[nH]c2ccccc23)nc1C (stereo not drawn) [drawing 203, ethyl 4-methyl-2-(2-{5H-[1,2,4]triazino[5,6-b]indol-3-ylsulfanyl}butanamido)-1,3-thiazole-5-carboxylate] | 4.5 ± 0.5 | 13 |
| CC(C)C1=CC2C(=O)NC(CSCC(=O)NCc3ccccn3)=NC2S1 (stereo not drawn) [drawing 204, 2-({[4-oxo-6-(propan-2-yl)-3H,4H,4aH,7aH-thieno[2,3-d]pyrimidin-2-yl]methyl}sulfanyl)-N-[(pyridin-2-yl)methyl]acetamide] | 3.8 ± 0.6 | 21 |
| O=C(CSCCc1ccccn1)Nc1ccc(Cl)c(Cl)c1 [drawing 205, N-(3,4-dichlorophenyl)-2-{[2-(pyridin-2-yl)ethyl]sulfanyl}acetamide] | 2.8 ± 0.1 | 41 |
| Cc1nc[nH]c1CSCCn1cnc2cn(C)nc2c1=O [drawing 206, 2-methyl-6-(2-{[(4-methyl-1H-imidazol-5-yl)methyl]sulfanyl}ethyl)-2H,6H,7H-pyrazolo[4,3-d]pyrimidin-7-one] | 2.8 ± 0.2 | 42 |
| Cc1ccc(-c2noc(CSCCCC(=O)Nc3c(C)cccc3C)n2)cc1F [drawing 209, N-(2,6-dimethylphenyl)-4-({[3-(3-fluoro-4-methylphenyl)-1,2,4-oxadiazol-5-yl]methyl}sulfanyl)butanamide] | 3.9 ± 0.5 | 20 |
| COc1ccc2c(c1)C1(SCCN1C(=O)c1ccccc1C)C(=O)N2Cc1cccc(C(F)(F)F)c1 (stereo not drawn) [drawing 210, 5-methoxy-3′-(2-methylbenzoyl)-1-{[3-(trifluoromethyl)phenyl]methyl}-1,2-dihydrospiro[indole-3,2′-[1,3]thiazolidine]-2-one] | 3.5 ± 0.6 | 26 |
| Cc1cccc(C)c1NC(=O)CCCSCc1ncc(C(C)C)o1 [drawing 211, N-(2,6-dimethylphenyl)-4-({[5-(propan-2-yl)-1,3-oxazol-2-yl]methyl}sulfanyl)butanamide] | 3.5 ± 0.1 | 25 |
| Cc1ccc2c(c1)SC(C(=O)NCc1ccc(N3CCCN(C)CC3)nc1)C2 (stereo not drawn) [drawing 212, 6-methyl-N-{[6-(4-methyl-1,4-diazepan-1-yl)pyridin-3-yl]methyl}-2,3-dihydro-1-benzothiophene-2-carboxamide] | 4.0 ± 0.3 | 18 |
| O=C(NCCSCc1ccc(Br)s1)C1CCCN(C(=O)c2cccs2)C1 (stereo not drawn) [drawing 213, N-(2-{[(5-bromothiophen-2-yl)methyl]sulfanyl}ethyl)-1-(thiophene-2-carbonyl)piperidine-3-carboxamide] | 5.1 ± 0.2 | 9 |
| Cc1ccc(-n2nnnc2SC(C)c2nc(-c3nnc[nH]3)no2)cc1 (stereo not drawn) [drawing 215, 1-(4-methylphenyl)-5-({1-[3-(4H-1,2,4-triazol-3-yl)-1,2,4-oxadiazol-5-yl]ethyl}sulfanyl)-1H-1,2,3,4-tetrazole] | 3.4 ± 0.3 | 27 |
| Cc1nnc(SCCCNC(=O)c2n[nH]c3c2CN(C)CC3)s1 [drawing 216, 5-methyl-N-{3-[(5-methyl-1,3,4-thiadiazol-2-yl)sulfanyl]propyl}-1H,4H,5H,6H,7H-pyrazolo[4,3-c]pyridine-3-carboxamide] | 3.1 ± 0.3 | 34 |
| O=C(NCCSCc1ccccc1)C1CCCCO1 (stereo not drawn) [drawing 218, N-[2-(benzylsulfanyl)ethyl]oxane-2-carboxamide] | 3.3 ± 0.4 | 30 |
| Cc1nc[nH]c1CSCCNC(=O)C1CCN(C(=O)C2CCC2)CC1 [drawing 220, 1-cyclobutanecarbonyl-N-(2-{[(4-methyl-1H-imidazol-5-yl)methyl]sulfanyl}ethyl)piperidine-4-carboxamide] | 2.9 ± 0.5 | 40 |
| O=C(NCCSCc1cccc(Cl)c1)C1CCCCn2nnnc21 (stereo not drawn) [drawing 222, N-(2-{[(3-chlorophenyl)methyl]sulfanyl}ethyl)-5H,6H,7H,8H,9H-[1,2,3,4]tetrazolo[1,5-a]azepine-9-carboxamide] | 2.9 ± 0.2 | 38 |
| CC(Sc1nnc(N2CCOCC2)n1Cc1ccccc1)C(=O)Nc1ccc2[nH]c(=O)[nH]c2c1 (stereo not drawn) [drawing 223, 2-{[4-benzyl-5-(morpholin-4-yl)-4H-1,2,4-triazol-3-yl]sulfanyl}-N-(2-oxo-2,3-dihydro-1H-1,3-benzodiazol-5-yl)propanamide] | 5.2 ± 0.2 | 8 |
| CC1CCCCC1NC(=O)NCCSCc1ccccc1 (stereo not drawn) [drawing 224, 1-[2-(benzylsulfanyl)ethyl]-3-(2-methylcyclohexyl)urea] | 6.8 ± 0.6 | 4 |
| S=C(NCCSCc1ccco1)NC1CC2CCC1C2 (stereo not drawn) [drawing 225, 1-{bicyclo[2.2.1]heptan-2-yl}-3-(2-{[(furan-2-yl)methyl]sulfanyl}ethyl)thiourea] | 3.7 ± 0.9 | 23 |

| SMILES | Aspect ratio (MEAN ± SEM) | Fusogenicity Rank |
| --- | --- | --- |
| CC(Sc1nnc(N2CCOCC2)n1Cc1ccccc1)C(=O)Nc1ccc2c(c1)OCCO2 (stereo not drawn) [drawing 226, 2-{[4-benzyl-5-(morpholin-4-yl)-4H-1,2,4-triazol-3-yl]sulfanyl}-N-(2,3-dihydro-1,4-benzodioxin-6-yl)propanamide] | 6.0 ± 0.1 | 6 |
| CC(Sc1nc(CN2CCOCC2)nc2ccccc12)C(=O)Nc1cccc(C(F)(F)F)c1 (stereo not drawn) [drawing 227, 2-({2-[(morpholin-4-yl)methyl]quinazolin-4-yl}sulfanyl)-N-[3-(trifluoromethyl)phenyl]propanamide] | 5.6 ± 0.6 | 7 |
| Cc1ccc(-n2c(SC(C)C(=O)Nc3ccnn3C(C)C)nnc2N2CCOCC2)cc1 (stereo not drawn) [drawing 229, 2-{[4-(4-methylphenyl)-5-(morpholin-4-yl)-4H-1,2,4-triazol-3-yl]sulfanyl}-N-[1-(propan-2-yl)-1H-pyrazol-5-yl]propanamide] | 4.1 ± 0.9 | 15 |
| CCCc1noc(C(C)Sc2nc3cc(C)ccc3[nH]2)n1 (stereo not drawn) [drawing 231, 5-methyl-2-{[1-(3-propyl-1,2,4-oxadiazol-5-yl)ethyl]sulfanyl}-1H-1,3-benzodiazole] | 4.0 ± 1.0 | 17 |
| CCC(C)C1N=C2c3ccccc3N=C(SC(C)C(=O)Nc3cc(OC)cc(OC)c3)N2C1=O (stereo not drawn) [drawing 234, 2-{[2-(butan-2-yl)-3-oxo-2H,3H-imidazo[1,2-c]quinazolin-5-yl]sulfanyl}-N-(3,5-dimethoxyphenyl)propanamide] | 3.2 ± 0.3 | 32 |
| CCC(C)NC(=O)c1ccccc1NC(=O)C(C)Sc1ccc(C)cc1 (stereo not drawn) [drawing 236, N-(butan-2-yl)-2-{2-[(4-methylphenyl)sulfanyl]propanamido}benzamide] | 3.3 ± 0.4 | 29 |
| c1ccc(CSCCc2nc(C3CCOC3)no2)cc1 (stereo not drawn) [drawing 238, 5-[2-(benzylsulfanyl)ethyl]-3-(oxolan-3-yl)-1,2,4-oxadiazole] | 3.4 ± 0.6 | 28 |
| CC(Sc1ccc(Br)cc1)C(=O)Nc1ccc2c(c1)OCCO2 (stereo not drawn) [drawing 239, 2-[(4-bromophenyl)sulfanyl]-N-(2,3-dihydro-1,4-benzodioxin-6-yl)propanamide] | 3.2 ± 0.5 | 33 |
| Cc1ccc(C(=O)C(C)Sc2nnc3c(=O)n(-c4ccc(C)c(C)c4)ccn23)cc1C (stereo not drawn) [drawing 240, 7-(3,4-dimethylphenyl)-3-{[1-(3,4-dimethylphenyl)-1-oxopropan-2-yl]sulfanyl}-7H,8H-[1,2,4]triazolo[4,3-a]pyrazin-8-one] | 3.9 ± 0.8 | 19 |
| O=C(NCCSCc1ccsc1)C1CC2CCCC(C1)C2=O (stereo not drawn) [drawing 241, 9-oxo-N-(2-{[(thiophen-3-yl)methyl]sulfanyl}ethyl)bicyclo[3.3.1]nonane-3-carboxamide] | 4.4 ± 0.6 | 14 |
| CC(Sc1nnc(N2CCOCC2)n1Cc1ccccc1)C(=O)Nc1ccc2c(c1)OCO2 (stereo not drawn) [drawing 242, N-(2H-1,3-benzodioxol-5-yl)-2-{[4-benzyl-5-(morpholin-4-yl)-4H-1,2,4-triazol-3-yl]sulfanyl}propanamide] | 2.5 ± 0.6 | 43 |
| Cc1ccc(N2C[C@@H]3CC[C@H](C2)N(Cc2ccccn2)C3=O)nn1 [drawing 245, (1S,5R)-3-(6-methylpyridazin-3-yl)-6-[(pyridin-2-yl)methyl]-3,6-diazabicyclo[3.2.2]nonan-7-one] | 3.0 ± 0.4 | 36 |
| Cc1ccc(SC2CCN(Cc3cc4n(n3)CCNC4)CC2)cc1 [drawing 246, 4-[(4-methylphenyl)sulfanyl]-1-({4H,5H,6H,7H-pyrazolo[1,5-a]pyrazin-2-yl}methyl)piperidine] | 2.9 ± 0.2 | 39 |
| CC(/N=N/C(=N)SC1CC(=O)N(c2cccc(C(=O)O)c2)C1=O)c1ccccc1 (stereo not drawn) [drawing 247, 3-(2,5-dioxo-3-{[(E)-N-[(1-phenylethyl)imino]carbamimidoyl]sulfanyl}pyrrolidin-1-yl)benzoic acid] | 3.3 ± 0.0 | 31 |
| CCOc1ccccc1NC(=O)CSCc1cc(=O)c2ccc(C)c(C)c2[nH]1 [drawing 248, 2-{[(7,8-dimethyl-4-oxo-1,4-dihydroquinolin-2-yl)methyl]sulfanyl}-N-(2-ethoxyphenyl)acetamide] | 3.7 ± 0.6 | 24 |
| O=C(CSCC(=O)N1CCCc2ccccc21)Nc1ccccc1 [drawing 249, 2-{[2-oxo-2-(1,2,3,4-tetrahydroquinolin-1-yl)ethyl]sulfanyl}-N-phenylacetamide] | 2.4 ± 0.4 | 44 |
